For test [1], the system named is HIVIIIb in CCRM-CEM cells. Description: Anti-viral potency in CCRM-CEM cells acutely infected with HIVIIIb (method of Meek et al.), extracellular p24 antigen. Particulars: Human immunodeficiency virus 1, HIV replication, Table VIII, read-out: IC90 Range. It counts as cell-based, HIV-1. The method in brief: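 Compounds in DMSO were added to CCRM-CEM cells (CD4+ human T-cell lymphoma) acutely infected with HIVIIIb following Meek et al. Inhibition of viral replication was determined from extracellular p24 antigen concentration measured by enzyme immunoassay.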

Another test deals with HIV-1 protease (Human immunodeficiency virus type 1 group M subtype B, UniProt P04585). Description: biochemical. Particulars: Table VII. The source says:
We measured the inhibition constants of the compounds listed in Table VII against HIV-1 protease using the above-cited method of Pennington et al.

pKi: −log10 of the molar value.

This note sets out measurements from patent US6004957A, “Sulfonamide inhibitors of aspartyl protease” (Vertex Pharmaceuticals, Incorporated, priority 1998, dated 1999).

In the case of `CC(C)CN(C[C@H](O)[C@H](Cc1ccccc1)NC(=O)[C@H](CC(N)=O)NC(=O)c1ccc2ccccc2n1)S(=O)(=O)c1cccc2nonc12` [Compound 192], the concentration for an effect of 90% (IC90) in test [1] was in the range of 1000 to 10000 nM. The same molecule showed a pKi on HIV-1 protease of 7.17.

At HIV-1 protease, `CC(C)CN(C[C@@H](O)[C@H](Cc1ccccc1)NC(=O)OC(C)(C)C)S(=O)(=O)c1ccc(N)c([N+](=O)[O-])c1` [Compound 62] had a pKi of 7.14.

At HIV-1 protease, `CC(C)CN(C[C@@H](O)[C@H](Cc1ccccc1)NC(=O)OC(C)(C)C)S(=O)(=O)N(C)C` [Compound 68] gave a pKi of 6.92.

Take `CC(=O)Nc1ccc(S(=O)(=O)N(CC(C)C)C[C@@H](O)[C@H](Cc2ccccc2)NC(=O)OCC2CCOC2)cc1` (stereo partly shown) [Compound 92]: at HIV-1 protease, the negative-log Ki (pKi) is 7.70. With `CC(C)CN(C[C@@H](O)[C@H](Cc1ccccc1)NC(=O)[C@@H](NC(=O)OCc1ccccn1)C(C)C)S(=O)(=O)c1ccc(F)cc1` [Compound 26], the IC90 in test [1] lay in the range of 101 to 1000 nM. On HIV-1 protease, this molecule showed a pKi of 10.00. The corresponding values for `CC(C)CN(C[C@@H](O)[C@H](Cc1ccccc1)NC(=O)OC1CCOC1)S(=O)(=O)c1ccc(F)cc1` (stereo partly drawn) [Compound 52, 4-Fluoro-N-((2 syn,3S)-2-hydroxy-4-phenyl-3-((R)-tetrahydrofuran-3-yloxycarbonylamino)-butyl)-N-isobutyl-benzenesulfonamide and 4-Fluoro-N-((2 syn,3S)-2-hydroxy-4-phenyl-3-((R)-tetrahydrofuran-3-yloxycarbonylamino)-butyl)-N-isobutyl-benzenesulfonamide] are 101 to 1000 nM and 9.40. As for `CC(C)CN(C[C@@H](O)[C@H](Cc1ccccc1)NC(=O)[C@H](CC(N)=O)NC(=O)c1ccc2ccccc2n1)S(=O)(=O)c1ccc(-c2ccccn2)s1` [Compound 12, (S)-N-1-(1-(S)-Benzyl-2-(syn)-hydroxyl-3-(isobutyl-(5-pyridin-2-yl-thiophene-2-sulfonyl)-amino)-propyl)-2-((quinoline-2-carbonyl)-amino)-succinamide], the concentration for an effect of 90% (IC90) in test [1] is under 100 nM. In addition, at HIV-1 protease, the pKi is 10.00.

In the case of `CC(C)CN(C[C@@H](O)[C@H](Cc1ccccc1)NC(=O)OCC1CCOC1)S(=O)(=O)c1ccc(F)cc1` (stereo partly drawn) [Compound 97, 4-Fluoro-N-(2 syn,3S)-2-hydroxy-4-phenyl-3-((tetrahydro-furan-(R)-3-ylmethoxycarbonylamino)-butyl)-N-isobutyl-benzenesulfonamide and 4-Fluoro-N-(2 syn,3S)-2-hydroxy-4-phenyl-3-((tetrahydro-furan-(S)-3-ylmethoxycarbonylamino)-butyl)-N-isobutyl-benzenesulfonamide], the concentration for an effect of 90% (IC90) in test [1] is 101 to 1000 nM. The same molecule gave a pKi at HIV-1 protease of 8.60. On HIV-1 protease, `CC(C)N(C[C@@H](O)[C@H](Cc1ccccc1)NC(=O)OC(C)(C)C)S(=O)(=O)c1ccc(F)cc1` [Compound 75] showed a pKi of 6.54.

Turning to `O=C(N[C@@H](Cc1ccccc1)[C@H](O)CN(CC1CCCC1)S(=O)(=O)c1ccc(O)cc1)O[C@H]1CCOC1` [Compound 169, N-Cyclopentylmethyl-4-hydroxy-N-((2 syn,3S)-2-hydroxy-4-phenyl-3-((S)-tetrahydrofuran-3-yloxycarbonylamino)-butyl)-benzenesulfonamide], in test [1], the IC90 was under 100 nM. Regarding `CC(C)CN(C[C@@H](O)[C@H](Cc1ccccc1)NC(=O)OC(C)(C)C)S(=O)(=O)c1ccc2nonc2c1` [Compound 64], in test [1], the IC90 lay within 1000 to 10000 nM. Consider `C=CCOC(=O)N[C@@H](Cc1ccccc1)[C@H](O)CN(CC(C)C)S(=O)(=O)c1ccc(F)c(NC(C)=O)c1` [Compound 87], for which, in test [1], the IC90 is 1000 to 10000 nM. In addition, the pKi at HIV-1 protease is 8.00. In the case of `C=CCOC(=O)N[C@@H](Cc1ccccc1)[C@H](O)CN(CC(C)C)S(=O)(=O)c1ccc(F)cc1` [Compound 122], in test [1], the IC90 is 1000 to 10000 nM. `CC(C)CN(C[C@@H](O)[C@H](Cc1ccccc1)NC(=O)OC(C)(C)C)S(=O)(=O)c1ccc(F)cc1F` [Compound 49]: the IC90 in test [1] lay in the range of 1000 to 10000 nM. On the same count and under the same terms, next, `CC(=O)Nc1ccc(S(=O)(=O)N(CC(C)C)C[C@@H](O)[C@H](Cc2ccccc2)NC(=O)OC(C)C)cc1` [Compound 29]: 1000 to 10000 nM; `CC[C@H](C)[C@H](NC(=O)OCc1ccccc1)C(=O)N[C@@H](Cc1ccccc1)[C@H](O)CN(CC(C)C)S(=O)(=O)c1ccc(F)c(NC(C)=O)c1` [Compound 187, Benzyloxycarbonyl-(L)-isoleucine-N-(5-((3-amino-(2 syn,3S)-2-hydroxy-4-phenyl-butyl)-isobutyl-sulfamoyl)-2-fluoro-phenyl)-acetamide]: 101 to 1000 nM. In the case of `COc1ccc(S(=O)(=O)N(CC2CCCCC2)C[C@@H](O)[C@H](Cc2ccccc2)NC(=O)O[C@H]2CCOC2)cc1` [Compound 158, N-Cyclohexylmethyl-N-((2 syn,3S)-2-hydroxy-4-phenyl-3-((S)-tetrahydrofuran-3-yloxycarbonylamino)-butyl)-4-methoxy-benzenesulfonamide], the IC90 in test [1] was under 100 nM. The same measure, in the same setting: next, `CC(=O)Nc1cc(S(=O)(=O)N(CC(C)C)C[C@@H](O)[C@H](Cc2ccccc2)NC(=O)OC(C)(C)C)ccc1F` [Compound 54]: 1000 to 10000 nM; `CC(C)CN(C[C@@H](O)[C@H](Cc1ccccc1)NC(=O)O[C@H]1CCOC1)S(=O)(=O)c1ccc(Cl)cc1` [Compound 99, 4-Chloro-N-((2 syn,3S)-2-hydroxy-4-phenyl-3-((S)-tetrahydrofuran-3-yloxycarbonylamino)-butyl)-isobutyl-benzenesulfonamide]: 101 to 1000 nM; `O=C(N[C@@H](Cc1ccccc1)[C@H](O)CN(CC1CCCC1)S(=O)(=O)c1ccccc1)O[C@H]1CCOC1` [Compound 148, N-Cyclopentylmethyl-N-((2 syn,3S)-2-hydroxy-4-phenyl-3-((S)-tetrahydrofuran-3-yloxycarbonylamino)-butyl)-benzenesulfonamide]: under 100 nM. `COc1ccc(S(=O)(=O)N(CC2CCCC2)C[C@@H](O)[C@H](CC2CCCCC2)NC(=O)O[C@H]2CCOC2)cc1` [Compound 195, N-((2 syn,3S)-4-Cyclohexyl-2-hydroxy-3-((S)-tetrahydrofuran-3-yloxycarbonylamino)-butyl)-N-cyclopentylmethyl-4-methoxy-benzenesulfonamide]: the IC90 in test [1] is under 100 nM. On the same count and under the same terms, next, `CC(C)(C)OC(=O)N[C@@H](Cc1ccccc1)[C@H](O)CN(CC1CCCC1)S(=O)(=O)c1ccc(Cl)c(Cl)c1` [Compound 84]: 1000 to 10000 nM; `CC(C)CN(C[C@@H](O)[C@H](Cc1ccccc1)NC(=O)O[C@H]1CCOC1)S(=O)(=O)c1ccc2nonc2c1` [Compound 66]: 101 to 1000 nM. As to `CC(C)CN(C[C@@H](O)[C@H](Cc1ccccc1)NC(=O)O[C@@H]1CCOC1)S(=O)(=O)c1ccc(F)cc1` [Compound 93, 4-Fluoro-N-((2 syn,3S)-2-hydroxy-4-phenyl-3-((R)-tetrahydrofuran-3-yloxycarbonylamino)-butyl)-N-isobutyl-benzenesulfonamide], the IC90 in test [1] lay in the range of 101 to 1000 nM. Same read-out and setting: with `CC(=O)Nc1ccc(S(=O)(=O)N(CC(C)C)C[C@@H](O)[C@H](Cc2ccccc2)NC(=O)OCc2ccccc2)cc1` [Compound 61] the figure was 1000 to 10000 nM.

Consider `CCCOC(=O)N[C@@H](Cc1ccccc1)[C@H](O)CN(CC(C)C)S(=O)(=O)c1ccc(Cl)c(Cl)c1` [Compound 89], for which the IC90 in test [1] is 1000 to 10000 nM. The same measure, in the same setting: next, `CC(C)CN(C[C@@H](O)[C@H](Cc1ccccc1)NC(=O)[C@H](CC(N)=O)NC(=O)c1ccc2ccccc2n1)S(=O)(=O)c1ccc(F)cc1` [Compound 14, (S)-N-1-(1-(S)-Benzyl-3-((4-fluoro-benzenesulfonyl)-isobutyl-amino)-2-(syn)-hydroxy-propyl)-2-((quinoline-2-carbonyl)-amino)-succinamide]: under 100 nM; `CC(C)CN(C[C@@H](O)[C@H](Cc1ccccc1)NC(=O)OC(C)(C)C)S(=O)(=O)c1ccccc1` [Compound 45]: 1000 to 10000 nM; `CCOC(=O)N[C@@H](Cc1ccccc1)[C@H](O)CN(CC1CCCC1)S(=O)(=O)c1ccc(F)cc1` [Compound 115, N-Cyclopentylmethyl-N-((3-ethoxycarbonylamino)-(2 syn,3S)-2-hydroxy-4-phenyl-butyl)-4-fluoro-benzenesulfonamide]: 101 to 1000 nM. On the same count and under the same terms, with `CC(C)CN(C[C@@H](O)[C@H](Cc1ccccc1)NC(=O)O[C@H]1CCOC1)S(=O)(=O)c1cccc(S(N)(=O)=O)c1` [Compound 112, Benzene-1,3-disulfonic acid 1-amide 3-((2 syn,3S)-2-hydroxy-4-phenyl-3-(3-(S)-tetrahydrofuran-3-yloxycarbonylamino)-butyl)-isobutyl-amide] the figure was 101 to 1000 nM. Same read-out and setting: next, `CC(C)CN(C[C@@H](O)[C@H](Cc1ccccc1)NC(=O)O[C@H]1CCOC1)S(=O)(=O)N1CCCCC1` [Compound 150, Piperidine-1-sulfonic acid ((2 syn,3S)-2-hydroxy-4-phenyl-3-((S)-tetrahydrofuran-3-yloxycarbonylamino)-butyl)-isobutyl-amide]: 101 to 1000 nM.

The molecule `O=C(N[C@@H](Cc1ccccc1)[C@H](O)CN(CC1CCCC1)S(=O)(=O)c1ccc2c(c1)OCO2)O[C@H]1CCOC1` [Compound 176] showed a pKi at HIV-1 protease of over 10.00. As to `NC(=O)C[C@H](NC(=O)c1ccc2ccccc2n1)C(=O)N[C@@H](Cc1ccccc1)[C@H](O)CN(Cc1ccccc1)S(=O)(=O)c1cccc2nonc12` [Compound 9, (S)-N-1-(3-((Benzo(1,2,5)oxadiazole-4-sulfonyl)-benzyl-amino)-(1S,2 syn)-1-benzyl-2-hydroxy-propyl)-2-((quinoline-2-carbonyl)-amino)-succinamide], the IC90 in test [1] lay within 101 to 1000 nM. The same measure, in the same setting: with `CC(=O)Nc1cccc(S(=O)(=O)N(CC(C)C)C[C@@H](O)[C@H](Cc2ccccc2)NC(=O)O[C@H]2CCOC2)c1` [Compound 91, N-(3-(((2 syn,3S)-2-Hydroxy-4-phenyl-3-((S)-tetrahydrofuran-3-yloxycarbonylamino)-butyl)-isobutyl-sulfamoyl)-phenyl)-acetamide] the figure was 101 to 1000 nM.

By IC90 is commonly meant the concentration at which the effect reaches the 90% level. As a reminder, the pKi is −log10 of the Ki, conventionally taken in molar units. Read a high pKi as a low Ki.
